In US20240247015A1, “PHOSPHORUS DERIVATIVES AS NOVEL SOS1 INHIBITORS” (BAYER AKTIENGESELLSCHAFT, priority 2021, published 2024):

molecular target: interaction of human SOS1 (SOS1) with human K-RasG12C (Homo sapiens (Human), UniProt Q07889); assay: Biochemical assay: hK-RasG12C interaction assay with hSOS1 (HTRF); format: binding; conditions: GST-hK-RasG12C with His-hSOS1, 60 min incubation at 20° C., mean, read-out: K-RasG12C - SOS interaction assay IC50 (mean)
How it was run: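 Compounds, duplicates at 11 concentrations from 0.073 nM to 20 µM, were preincubated 2 min with 10 nM GST-hK-RasG12C, then 20 nM His-hSOS1 was added, all at 20 °C. After 60 min, 665/620 nm HTRF ratio normalized to DMSO and SOS1-free controls; IC50 by 4-parameter fit.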

Chain of interaction of human SOS1 (SOS1) with human K-RasG12C (Q07889 564-1049 limits assumed): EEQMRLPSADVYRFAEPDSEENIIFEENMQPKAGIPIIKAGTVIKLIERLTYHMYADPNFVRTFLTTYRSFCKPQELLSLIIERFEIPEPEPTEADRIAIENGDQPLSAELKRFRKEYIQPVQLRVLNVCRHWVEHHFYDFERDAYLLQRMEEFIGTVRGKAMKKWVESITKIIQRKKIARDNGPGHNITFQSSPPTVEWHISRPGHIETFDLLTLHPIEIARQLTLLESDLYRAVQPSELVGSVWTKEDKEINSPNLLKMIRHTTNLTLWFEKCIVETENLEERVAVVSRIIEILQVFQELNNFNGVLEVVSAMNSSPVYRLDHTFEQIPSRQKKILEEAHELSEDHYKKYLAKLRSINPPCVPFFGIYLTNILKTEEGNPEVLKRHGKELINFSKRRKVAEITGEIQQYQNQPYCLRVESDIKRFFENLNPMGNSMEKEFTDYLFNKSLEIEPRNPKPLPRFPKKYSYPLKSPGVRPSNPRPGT

IC50 [nM]	SMILES
11.1	Cc1nc(N[C@H](C)c2cccc(C(F)(F)F)c2C)c2cc(P3(=O)CCN(c4cnn(C)c4)CC3)ncc2n1 [Example 39, 4-[2-methyl-4-({(1R)-1-[2-methyl-3-(trifluoromethyl)phenyl]ethyl}amino)pyrido[3,4-d]pyrimidin-6-yl]-1-(1-methyl-1H-pyrazol-4-yl)-1,4lambda^5-azaphosphinan-4-one]
18.3	Cc1nc(N[C@H](C)c2cccc(C(F)(F)F)c2C)c2cc(P3(=O)CCN(c4ccn(C)n4)CC3)ncc2n1 [Example 40, 4-[2-methyl-4-({(1R)-1-[2-methyl-3-(trifluoromethyl)phenyl]ethyl}amino)pyrido[3,4-d]pyrimidin-6-yl]-1-(1-methyl-1H-pyrazol-3-yl)-1,4lambda^5-azaphosphinan-4-one]
174	Cc1nc(N[C@H](C)c2cccc(C(F)(F)F)c2C)c2cc(P3(=O)CCN(S(C)(=O)=O)CC3)ncc2n1 [Example 41, 1-(methanesulfonyl)-4-[2-methyl-4-({(1R)-1-[2-methyl-3-(trifluoromethyl)phenyl]ethyl}amino)pyrido[3,4-d]pyrimidin-6-yl]-1,4lambda^5-azaphosphinan-4-one]
4.87	CC(=O)N1CCP(=O)(c2cc3c(N[C@H](C)c4cccc(C(F)(F)CO)c4F)nc(C)nc3cn2)CC1 [Example 42, 1-acetyl-4-[4-({(1R)-1-[3-(1,1-difluoro-2-hydroxyethyl)-2-fluorophenyl]ethyl}amino)-2-methylpyrido[3,4-d]pyrimidin-6-yl]-1,4lambda^5-azaphosphinan-4-one]
375	CC(=O)N1CCP(=O)(c2cc3c(N[C@H](C)c4cccc(C(F)(F)C(=O)O)c4F)nc(C)nc3cn2)CC1 [Example 43, {3-[(1R)-1-{[6-(1-acetyl-4-oxo-1,4lambda^5-azaphosphinan-4-yl)-2-methylpyrido[3,4-d]pyrimidin-4-yl]amino}ethyl]-2-fluorophenyl}(difluoro)acetic acid]
15.9	CC(=O)N1CCP(=O)(c2cc3c(N[C@H](C)c4cccc(C(F)(F)C(=O)NC5CC5)c4F)nc(C)nc3cn2)CC1 [Example 44, 2-{3-[(1R)-1-{[6-(1-acetyl-4-oxo-1,4lambda^5-azaphosphinan-4-yl)-2-methylpyrido[3,4-d]pyrimidin-4-yl]amino}ethyl]-2-fluorophenyl}-N-cyclopropyl-2,2-difluoroacetamide]
17	CC(=O)N1CCP(=O)(c2cc3c(N[C@H](C)c4cccc(C(F)(F)C(=O)N(C)C)c4F)nc(C)nc3cn2)CC1 [Example 45, 2-{3-[(1R)-1-{[6-(1-acetyl-4-oxo-1,4lambda^5-azaphosphinan-4-yl)-2-methylpyrido[3,4-d]pyrimidin-4-yl]amino}ethyl]-2-fluorophenyl}-2,2-difluoro-N,N-dimethylacetamide]
6.1	CC(=O)N1CCP(=O)(c2cc3c(N[C@H](C)c4cccc(C(F)(F)C(N)=O)c4F)nc(C)nc3cn2)CC1 [Example 46, 2-{3-[(1R)-1-{[6-(1-acetyl-4-oxo-1,4lambda^5-azaphosphinan-4-yl)-2-methylpyrido[3,4-d]pyrimidin-4-yl]amino}ethyl]-2-fluorophenyl}-2,2-difluoroacetamide]
13.8	CNC(=O)C(F)(F)c1cccc([C@@H](C)Nc2nc(C)nc3cnc(P4(=O)CCN(C(C)=O)CC4)cc23)c1F [Example 47, 2-{3-[(1R)-1-{[6-(1-acetyl-4-oxo-1,4lambda^5-azaphosphinan-4-yl)-2-methylpyrido[3,4-d]pyrimidin-4-yl]amino}ethyl]-2-fluorophenyl}-2,2-difluoro-N-methylacetamide]
29.3	Cc1nc(N[C@H](C)c2cccc(C(F)(F)C(N)=O)c2F)c2cc(P(C)(C)=O)ncc2n1 [Example 48, 2-{3-[(1R)-1-{[6-(dimethylphosphoryl)-2-methylpyrido[3,4-d]pyrimidin-4-yl]amino}ethyl]-2-fluorophenyl}-2,2-difluoroacetamide]
